Test results from patent US12358918B2, “Aryl hydrocarbon receptor (AHR) activator compounds as cancer therapeutics” (THE BROAD INSTITUTE, INC., priority 2018, dated 2025).

How the values were obtained:
[1] = target: T1, recombinant human Adenosine A1 (FAST-001C) receptor (Homo sapiens, UniProt P30542); experiment: cAMP HTRF assay, Adenosine A1 receptor, antagonist mode; parameters: inhibition: dose or concentration left out as unconfirmed
T1 sequence (P30542 1-326): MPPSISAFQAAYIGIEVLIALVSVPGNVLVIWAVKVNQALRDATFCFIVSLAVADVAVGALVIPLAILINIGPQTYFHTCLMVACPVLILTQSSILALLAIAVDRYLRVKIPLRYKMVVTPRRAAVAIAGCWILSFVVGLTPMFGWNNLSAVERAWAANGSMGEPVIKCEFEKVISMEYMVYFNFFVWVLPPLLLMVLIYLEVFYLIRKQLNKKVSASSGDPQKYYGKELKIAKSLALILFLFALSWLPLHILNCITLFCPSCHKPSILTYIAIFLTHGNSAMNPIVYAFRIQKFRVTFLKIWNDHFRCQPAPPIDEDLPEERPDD

[2] = system: MDA-MB-231 breast cancer cell lines; experiment: cytotoxicity, control cells vs cells overexpressing CYP1A1; assay type: cell-based
Source text: The dependence of each compound's cytotoxic effects upon CYP1A1 was also examined, via screening of MDA-MB-231 breast cancer cell lines for cytotoxic response. The CYP1A1-dependence of the cytotoxic response of to each tested compound was specifically determined by comparing the cytotoxicity of each compound administered to control cells with that of the compound administered to corresponding cells that overexpressed CYP1A1. […]

[3] = target: recombinant human Adenosine A2A (FAST-002C) receptor (Homo sapiens, UniProt P29274); experiment: cAMP HTRF assay, Adenosine A2A receptor, antagonist mode; assay type: cell-based
[4] = system: ZR-75-1 and MDA-MB-468 cells harboring an AGR2 knockout; settings: CRISPR-Cas9 AGR2 knockout; FIGS. 10A-10D
[5] = antagonist mode dose-response fit

Chain of recombinant human Adenosine A2A (FAST-002C) receptor (P29274 whole entry): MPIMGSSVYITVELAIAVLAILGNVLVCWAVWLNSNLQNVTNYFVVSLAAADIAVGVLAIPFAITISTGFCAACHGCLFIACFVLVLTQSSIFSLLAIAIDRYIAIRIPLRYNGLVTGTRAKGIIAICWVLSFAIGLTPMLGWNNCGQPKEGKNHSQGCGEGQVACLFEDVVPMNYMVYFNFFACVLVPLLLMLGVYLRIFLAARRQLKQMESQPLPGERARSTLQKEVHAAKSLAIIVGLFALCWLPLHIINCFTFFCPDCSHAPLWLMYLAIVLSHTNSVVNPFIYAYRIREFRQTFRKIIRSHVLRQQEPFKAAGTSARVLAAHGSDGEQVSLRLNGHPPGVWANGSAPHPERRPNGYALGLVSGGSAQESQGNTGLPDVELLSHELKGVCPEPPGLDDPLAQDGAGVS

Compound: Nc1nc2ccc(Cl)cc2c2nc(-c3ccco3)nn12 [CGS-15943, reference compound]
- inhibition ([1]; CHO-K1, read-out: % Inhibition Average at maximal concentration): 106%
- Hill Coefficient [1, 5]: 0.92
- CYP1A1-dependence of the cytotoxic response [2]: CYP1A1-dependent cytotoxic
- inhibition at 10 µM ([3]; HEK293, read-out: % Inhibition Average at maximal concentration): 125%
- Hill Coefficient [3, 5]: 1.25
- rescue of cytotoxicity by AGR2 knockout [4]: not rescued by AGR2 knockout
